Active and inactive are the calls of the source. The rule behind the calls is not given here.

The subject of this assay is HaCaT. The assay is described as follows: Induction of cell migration in human HaCaT cells at 30 uM by in vitro wound healing assay. The class given is functional, cell-based.

Take `CCN1Cc2cc(OC)ccc2CC(C)C1=O` (stereo not drawn): the outcome was Active.

For `CCCCCN1Cc2cc(OC)ccc2CC(C)C1=O` (stereo not drawn), the outcome was inactive.

Consider `CCCN1Cc2cc(OC)ccc2CC(C)C1=O` (stereo not drawn), for which the outcome was inactive.

Turning to `COc1ccc2c(c1)CN(Cc1ccccc1)C(=O)C(C)C2` (stereo not drawn), the outcome was inactive.

As to `COc1ccc2c(c1)CN(C)C(=O)C(C)C2` (stereo not drawn), the outcome was Active.

Regarding `COc1ccc2c(c1)CN(C(C)C)C(=O)C(C)C2` (stereo not drawn), the result was inactive.

For the compound `COc1ccc2c(c1)CNC(=O)C(C)C2` (stereo not drawn), the result was Active.

Turning to `CCCCN1Cc2cc(OC)ccc2CC(C)C1=O` (stereo not drawn), the outcome was inactive.
